These results are taken from PubChem BioAssay (NCI).

Common to all, as to assay: NCI anticancer screen, dose series, 48 h
Experiment [1] has as its system HT29 colon.
The subject of experiment [2] is U251 CNS.
Experiment [3] concerns OVCAR-5 ovarian.
The subject of experiment [4] is NCI-H460 lung.
In experiment [5] the test system is OVCAR-8 ovarian.
Experiment [6] concerns MDA-MB-231 breast.
The test system of experiment [7] is OVCAR-4 ovarian.
Experiment [8] has as its system A498 renal.
In experiment [9] the test system is HCC-2998 colon.
For experiment [10], the system named is RXF 393 renal.

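These data come from cells grown in 96-well plates and exposed to compound for 48 hours at five concentrations. GI50: concentration for 50% inhibition of growth. TGI: total growth inhibition.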 A value given as a limit tells only on which side of the number the result lay.

Take `CN1CCN(c2ccc3nc(-c4cc(C(C)(C)C)c(O)c(C(C)(C)C)c4)[nH]c3c2)CC1`: the GI50 is 2.1 µM in experiment [1]; 2.92 µM in experiment [2]; 3.53 µM in experiment [3]; 1.99 µM in experiment [4]; 5 µM in experiment [5]; 2.09 µM in experiment [6]. Also, the GI50 in [7] was 5.43 µM; in experiment [8], 7.23 µM; in experiment [9] it was 1.85 µM; in experiment [10], 1.72 µM. Besides, the TGI came out at 4.41 µM in experiment [1]; 8.59 µM in experiment [2]; 12 µM in experiment [3]; 3.7 µM in experiment [4]; 19.1 µM in experiment [5]; 4.31 µM in [6]. For the same compound, the TGI in experiment [7] was determined as 19 µM; in experiment [8], 21.2 µM; in experiment [9], 3.43 µM; in [10] it was 3.52 µM.
On to `CN1C(=O)CNC(=O)[C@H](NC(=O)c2nc3ccccc3cc2O)CSSC[C@H]1C(=O)NCCc1nc2ccccc2cc1O`, for which the GI50 in experiment [1] was 3.12 µM; in experiment [2], 16.5 µM; in [3], 24.9 µM; in experiment [4], 1.15 µM; in experiment [5] it was 20.8 µM; in experiment [6], 5.42 µM. Moreover, the GI50 in experiment [7] is 25 µM; in experiment [8] it was over 100 µM; in experiment [9], 15.7 µM; in [10], 13.9 µM. The TGI in [1] is 16.4 µM; in [2] it was 43 µM; in experiment [3] it was 62.1 µM; in [4], over 35.2 µM; in [5], 53.9 µM; in [6], 27.7 µM. For the same compound, the TGI is over 73.1 µM in experiment [7], over 100 µM in experiment [8], over 75.9 µM in experiment [9] and 36 µM in experiment [10].
Turning to `CS(=O)(=O)CCNCc1ccc(-c2ccc3ncnc(Nc4ccc(OCc5cccc(C(F)(F)F)c5)cc4)c3c2)o1`, the GI50 in experiment [1] is 4.22 µM; in [2] it was 4.22 µM; in experiment [3], 9.03 µM; in experiment [4] it was 5.31 µM; in experiment [5], 6.91 µM; in experiment [6] it was 6.34 µM. Besides, the GI50 was 8.68 µM in [7], 4.38 µM in experiment [8], 4.46 µM in [9] and 5.28 µM in experiment [10]. Further, the TGI in [1] was 8.32 µM; in [2], 9.51 µM; in experiment [3] it was 24.3 µM; in experiment [4] it was 11.8 µM; in experiment [5], over 21.9 µM; in experiment [6], 14.1 µM. The TGI in [7] was over 25 µM; in experiment [8], 13.1 µM; in experiment [9] it was 8.26 µM; in [10], 13.6 µM.
As for `CC(=O)O[C@@H]1CO[C@H]2O[C@H]3[C@@H](C(C=O)=C[C@H](O)[C@@H]4C5=C(C(C)C)CC[C@]5(C)CC[C@@]34C)[C@@]2(O)C1=O`, the TGI was found to be 0.471 µM in experiment [1]; 0.55 µM in [2]; 1.12 µM in experiment [3]; 0.699 µM in [4]; 0.52 µM in [5]; 0.407 µM in experiment [6]. The TGI in [7] turned out to be 0.943 µM; in experiment [8], 1.96 µM; in experiment [9], 1.27 µM; in experiment [10], 0.362 µM.
With `CCCCCCCCCCCCCCCc1cc(O)ccc1N`, the GI50 in experiment [1] was over 100 µM; in experiment [2] it was over 80.2 µM; in [3], 28 µM; in experiment [4], over 100 µM; in experiment [5] it was 43.5 µM; in experiment [6], over 31.1 µM. Also, the GI50 in [7] was 1.23 µM; in experiment [8], 21.7 µM; in experiment [9], over 100 µM; in [10] it was 18.5 µM. For the same compound, the TGI in experiment [1], in experiment [2], in [3], in experiment [4], in experiment [5] and in experiment [6] was over 100 µM each time. The TGI in experiment [7] was 3.77 µM; in experiment [8] it was 75.3 µM; in [9] it was over 100 µM; in experiment [10], over 84.6 µM.
As to `CC(ONC(=O)c1cc(C(F)(F)F)cc(C(F)(F)F)c1)C(=O)Nc1ccc(Cl)cc1` (stereo not given), the GI50 was 5.92 µM in experiment [1]; 4.61 µM in experiment [2]; 5.53 µM in experiment [3]; 3.5 µM in experiment [4]; 6.2 µM in experiment [5]; 8.7 µM in experiment [6]. Moreover, the GI50 is 4.64 µM in experiment [7], 3.35 µM in experiment [8], 4.16 µM in experiment [9] and 5.95 µM in experiment [10]. Moreover, the TGI in experiment [1] was 27.2 µM; in experiment [2], over 50.5 µM; in experiment [3], 25.1 µM; in [4], 15 µM; in experiment [5] it was over 62.1 µM; in [6], 36.5 µM. For the same compound, the TGI in experiment [7] is over 100 µM; in experiment [8], 14.5 µM; in experiment [9], 17 µM; in experiment [10], 35.6 µM.
In the case of `CC1(C)N=C(N)N=C(N)N1c1ccc(F)c(C(F)(F)F)c1`, the GI50 in experiment [1] was 0.363 µM; in [2], 0.503 µM; in [3], over 100 µM; in [4], 0.42 µM; in experiment [5] it was 0.597 µM; in [6] it was over 100 µM. Moreover, the GI50 in [7] was 22.6 µM; in experiment [8], 9.84 µM; in experiment [9], 1.85 µM; in experiment [10] it was over 31.5 µM. The TGI in experiment [1], in [2], in experiment [3], in experiment [4], in experiment [5] and in experiment [6] was over 100 µM each time. The TGI in [7], in experiment [8], in experiment [9] and in experiment [10] was over 100 µM each time.
